From ChEMBL document CHEMBL1201862, “PubChem BioAssay data set” (2004)
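Exposure lasted 48 hours, with cells grown in 96-well plates and compounds tested at five concentrations. GI50: concentration for 50% inhibition of growth.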 Activity calls are given as the source filed them. Rule as the data show it: active = GI50 up to about 1.1 µM and inactive = higher.

Assays:
Assay in all cases: DTP human tumour cell line panel, 48 h
[1] = test system: HCT-116
[2] = test system: COLO 205
[3] = test system: Malme-3M
[4] = test system: MCF7
[5] = test system: HL-60
[6] = test system: ACHN
[7] = test system: HCC 2998
[8] = test system: M14
[9] = test system: NCI-H522
[10] = test system: MDA-MB-435
[11] = test system: SW-620
[12] = test system: U-251
[13] = test system: CCRF-CEM
[14] = test system: A549
[15] = test system: UO-31
[16] = test system: OVCAR-5
[17] = test system: MDA-MB-231
[18] = test system: LOX IMVI
[19] = test system: IGROV-1
[20] = test system: NCI-H460

`COC(=O)C1=C(C(=O)OC)C(C(=O)OC)C(C(=O)OC)C(C(=O)OC)(C(=O)OC)C(C(=O)OC)=C1C(=O)OC` (stereo not given) was tested, and the GI50 [1] was 7.36 µM (inactive), the GI50 [2] was 4.27 µM (inactive) and the GI50 [3] was 5.77 µM (inactive). The GI50 [4] was 15.4 µM (inactive), the GI50 [5] was 1.97 µM (inactive) and the GI50 [6] was 14.7 µM (inactive). The GI50 [7] was 16.9 µM (inactive), the GI50 [8] was 15.1 µM (inactive) and the GI50 [9] was 1.96 µM (inactive). For the same compound, the GI50 [10] was 18.7 µM (inactive), the GI50 [11] was 5.08 µM (inactive) and the GI50 [12] was 16.9 µM (inactive). The GI50 [13] was 2.77 µM (inactive), the GI50 [14] was 21.2 µM (inactive) and the GI50 [15] was 16.3 µM (inactive). The GI50 [16] was 19.3 µM (inactive), the GI50 [17] was 20.9 µM (inactive) and the GI50 [18] was 13.5 µM (inactive). The GI50 [19] was 18.1 µM (inactive) and the GI50 [20] was 19 µM (inactive).

With `CN(C)CCOc1ccc2[nH]c(C(=O)N3CC(CCl)c4c3cc(NC(=O)OCc3ccc([N+](=O)[O-])cc3)c3ccccc43)cc2c1` (stereo not given) the GI50 [1] was 0.794 µM (active), the GI50 [2] was 1.64 µM (inactive) and the GI50 [3] was 1.47 µM (inactive). The GI50 [4] was 0.211 µM (active), the GI50 [5] was 0.269 µM (active) and the GI50 [6] was 0.689 µM (active). For the same compound, the GI50 [7] was 8.15 µM (inactive), the GI50 [8] was 1.63 µM (inactive) and the GI50 [9] was 1.12 µM (inactive). For the same compound, the GI50 [10] was 1.6 µM (inactive), the GI50 [11] was 1.19 µM (inactive) and the GI50 [12] was 1.36 µM (inactive). The GI50 [13] was 0.162 µM (active), the GI50 [14] was 1.24 µM (inactive) and the GI50 [15] was 1.28 µM (inactive). The GI50 [16] was 1.6 µM (inactive), the GI50 [17] was 2.14 µM (inactive) and the GI50 [18] was 1.45 µM (inactive). For the same compound, the GI50 [19] was 1.45 µM (inactive) and the GI50 [20] was 4.05 µM (inactive).

In the case of `CC(C)(C)OC(=O)NCCC1SC2C=CC1C2` (stereo not given), the GI50 [1] is reported as > 100 µM (inactive), the GI50 [2] is reported as > 100 µM (inactive) and the GI50 [3] is reported as > 100 µM (inactive). For the same compound, the GI50 [4] was > 100 µM (inactive), the GI50 [5] was > 100 µM (inactive) and the GI50 [6] was > 100 µM (inactive). The GI50 [7] was > 100 µM (inactive), the GI50 [8] was > 100 µM (inactive) and the GI50 [9] was > 100 µM (inactive). For the same compound, the GI50 [10] was > 100 µM (inactive), the GI50 [11] was > 100 µM (inactive) and the GI50 [12] was > 100 µM (inactive). The GI50 [13] was > 100 µM (inactive), the GI50 [14] was > 100 µM (inactive) and the GI50 [15] was > 100 µM (inactive). The GI50 [16] was > 100 µM (inactive), the GI50 [17] was > 100 µM (inactive) and the GI50 [18] was > 100 µM (inactive). For the same compound, the GI50 [19] was > 100 µM (inactive) and the GI50 [20] was > 100 µM (inactive).

`COC(=O)/C=C\C(C#N)(C#N)/N=C/c1cccs1` was tested, and the GI50 [1] was 8.69 µM (inactive), the GI50 [2] was 3.68 µM (inactive) and the GI50 [3] was 2.65 µM (inactive). The GI50 [4] was 2.01 µM (inactive), the GI50 [5] was 1.63 µM (inactive) and the GI50 [6] was 1.84 µM (inactive). For the same compound, the GI50 [7] was 18.9 µM (inactive), the GI50 [8] was 4.35 µM (inactive) and the GI50 [9] was 0.783 µM (active). The GI50 [10] was 5.16 µM (inactive), the GI50 [11] was 1.87 µM (inactive) and the GI50 [12] was 16.6 µM (inactive). The GI50 [13] was 0.533 µM (active), the GI50 [14] was 22.6 µM (inactive) and the GI50 [15] was 2.26 µM (inactive). The GI50 [16] was 5.92 µM (inactive), the GI50 [17] was 1.46 µM (inactive) and the GI50 [18] was 2.34 µM (inactive). The GI50 [19] was 15.7 µM (inactive) and the GI50 [20] was 19.6 µM (inactive).

With `FC(F)(F)c1ccc(Cc2nc3cc4ccccc4cc3[nH]2)cc1` the GI50 [1] was > 100 µM (inactive), the GI50 [2] was > 100 µM (inactive) and the GI50 [3] was > 100 µM (inactive). The GI50 [4] was 92.3 µM (inactive), the GI50 [5] was 93.1 µM (inactive) and the GI50 [6] was 49 µM (inactive). The GI50 [7] was > 100 µM (inactive), the GI50 [8] was > 100 µM (inactive) and the GI50 [9] was 26.7 µM (inactive). For the same compound, the GI50 [10] was > 100 µM (inactive), the GI50 [11] was > 100 µM (inactive) and the GI50 [12] was 71.3 µM (inactive). For the same compound, the GI50 [13] was > 100 µM (inactive), the GI50 [14] was > 100 µM (inactive) and the GI50 [15] was 58.5 µM (inactive). The GI50 [16] was > 100 µM (inactive), the GI50 [17] was > 100 µM (inactive) and the GI50 [18] was 77.8 µM (inactive). For the same compound, the GI50 [19] was 16 µM (inactive) and the GI50 [20] was > 100 µM (inactive).

With `C=CC(Br)(CBr)CCC1OC1(C)C` (stereo not given) the GI50 [1] was 17 µM (inactive), the GI50 [2] was 18.7 µM (inactive) and the GI50 [3] was 23.5 µM (inactive). The GI50 [4] was 14.1 µM (inactive), the GI50 [5] was 23.1 µM (inactive) and the GI50 [6] was 18.2 µM (inactive). For the same compound, the GI50 [7] was 18.9 µM (inactive), the GI50 [8] was 13.9 µM (inactive) and the GI50 [9] was 17.2 µM (inactive). For the same compound, the GI50 [10] was 17.3 µM (inactive), the GI50 [11] was 13.1 µM (inactive) and the GI50 [12] was 17 µM (inactive). For the same compound, the GI50 [13] was 29.9 µM (inactive), the GI50 [14] was 23.1 µM (inactive) and the GI50 [15] was 18.2 µM (inactive). For the same compound, the GI50 [16] was 18.9 µM (inactive), the GI50 [17] was 11.8 µM (inactive) and the GI50 [18] was 5.47 µM (inactive). For the same compound, the GI50 [19] was 13.2 µM (inactive) and the GI50 [20] was 14.2 µM (inactive).

`Cn1ccnc1Sc1ccc(/C=N/NC(=O)c2ccccc2[N+](=O)[O-])cc1[N+](=O)[O-]` was tested, and the GI50 [1] was 65.6 µM (inactive), the GI50 [2] was 56.2 µM (inactive) and the GI50 [3] was 54.6 µM (inactive). The GI50 [4] was 59.8 µM (inactive), the GI50 [5] was 47.1 µM (inactive) and the GI50 [6] was 70.1 µM (inactive). For the same compound, the GI50 [7] was 36.7 µM (inactive), the GI50 [8] was > 100 µM (inactive) and the GI50 [9] was 38.5 µM (inactive). For the same compound, the GI50 [10] was 66.7 µM (inactive), the GI50 [11] was 98.2 µM (inactive) and the GI50 [12] was > 100 µM (inactive). For the same compound, the GI50 [13] was 42.7 µM (inactive), the GI50 [14] was > 100 µM (inactive) and the GI50 [15] was 89.1 µM (inactive). For the same compound, the GI50 [16] was > 100 µM (inactive), the GI50 [17] was 23.1 µM (inactive) and the GI50 [18] was 37.3 µM (inactive). For the same compound, the GI50 [19] was 37.4 µM (inactive) and the GI50 [20] was 46.5 µM (inactive).

For `CCN(CCCl)c1cc(CN(C)C)cc(NC(=O)c2ccc(C(=O)Nc3cccc(N(CCCl)NN)c3)cc2)c1`, the GI50 [1] was 0.0277 µM (active), the GI50 [2] was 0.0635 µM (active) and the GI50 [3] was 0.0224 µM (active). The GI50 [4] was < 0.01 µM (active), the GI50 [5] was < 0.01 µM (active) and the GI50 [6] was < 0.01 µM (active). The GI50 [7] was 0.0546 µM (active), the GI50 [8] was 0.0224 µM (active) and the GI50 [9] was < 0.01 µM (active). For the same compound, the GI50 [10] was 0.016 µM (active), the GI50 [11] was < 0.01 µM (active) and the GI50 [12] was 0.0101 µM (active). The GI50 [13] was < 0.01 µM (active), the GI50 [14] was 0.0209 µM (active) and the GI50 [15] was 0.462 µM (active). The GI50 [16] was 0.182 µM (active), the GI50 [17] was 0.185 µM (active) and the GI50 [18] was < 0.01 µM (active). The GI50 [19] was 0.0225 µM (active) and the GI50 [20] was < 0.01 µM (active).

`CC(=O)Nc1ccc2c3c(cc(O)c2c1)N(C(=O)CCCCC(=O)Nc1ccc2c4c(cc(O)c2c1)N(C(=O)OC(C)(C)C)CC4CCl)CC3CCl` (stereo not given) was tested, and the GI50 [1] was 2.22 µM (inactive), the GI50 [2] was 1.82 µM (inactive) and the GI50 [3] was 1.39 µM (inactive). For the same compound, the GI50 [4] was 0.373 µM (active), the GI50 [5] was 0.42 µM (active) and the GI50 [6] was 3.2 µM (inactive). For the same compound, the GI50 [7] was 1.66 µM (inactive), the GI50 [8] was 3.27 µM (inactive) and the GI50 [9] was 0.74 µM (active). The GI50 [10] was 1.78 µM (inactive), the GI50 [11] was 2.82 µM (inactive) and the GI50 [12] was 1.53 µM (inactive). For the same compound, the GI50 [13] was 0.193 µM (active), the GI50 [14] was 7.62 µM (inactive) and the GI50 [15] was 24.3 µM (inactive). For the same compound, the GI50 [16] was 3.29 µM (inactive), the GI50 [17] was 3.8 µM (inactive) and the GI50 [18] was 2.19 µM (inactive). For the same compound, the GI50 [19] was 1.92 µM (inactive) and the GI50 [20] was 1.83 µM (inactive).

In the case of `COc1ccc(/C=C2\CCCc3ccccc3C2=O)cc1`, the GI50 [1] is reported as 0.244 µM (active), the GI50 [2] is reported as 0.0904 µM (active) and the GI50 [3] is reported as 0.0174 µM (active). For the same compound, the GI50 [4] was 1.27 µM (inactive), the GI50 [5] was 0.279 µM (active) and the GI50 [6] was 3.15 µM (inactive). For the same compound, the GI50 [7] was 0.2 µM (active), the GI50 [8] was 0.0335 µM (active) and the GI50 [9] was < 0.0218 µM (active). The GI50 [10] was 0.0154 µM (active), the GI50 [11] was 0.378 µM (active) and the GI50 [12] was 0.508 µM (active). The GI50 [13] was 0.578 µM (active), the GI50 [14] was 0.197 µM (active) and the GI50 [15] was 1.64 µM (inactive). The GI50 [16] was 0.605 µM (active), the GI50 [17] was 0.201 µM (active) and the GI50 [18] was 0.179 µM (active). The GI50 [19] was 0.0573 µM (active) and the GI50 [20] was 0.0893 µM (active).
